Reference: publication PMC5581131, “The novel sphingosine-1-phosphate receptors antagonist AD2900 affects lymphocyte activation and inhibits T-cell entry into the lymph nodes” (Oncotarget, 2017)

System: human PBMCs
Assay: 5-day MLR with Et-18-OCH3, BAPTA-AM or 8-bromo-cAMP preincubation, analogues present throughout
Assay type: cell-based
Settings: 2 μM; 1 hour preincubation with the inhibitors
Procedure: To determine whether the effect of inhibition of AD2900 on PBMC proliferation is dependent on the same signal transduction pathways, we next examined the capacities of the intracellular Ca^2+ chelator-BAPTA-AM, phosphatidylinositol-specific PLC inhibitor-Et-18-OCH3, and cell-permeate exogenous cAMP-8-bromo-cAMP to alter the suppressive effect of AD2900 and FTY720 on PBMC proliferation. S1P served as a positive control (Figures 2A, 2B, and 2C, respectively). PBMCs were pre-incubated for 1 hour with the inhibitors before the addition of 2 μM AD2900, FTY720, or S1P in the MLR experiment. The inhibitors and the analogues were present in the culture throughout the allogeneic activation. AD2900 suppression of PBMC proliferation was reduced from 59% ± 3% to 32% ± 7% by the exogenous cAMP. BAPTA-AM also partially reversed AD2900 suppression of PBMC proliferation from 59% ± 3% to 32% ± 3%, yet Et-18-OCH3 had no effect (Figure 2A).
Figure 2 Effect of AD2900 on proliferation is dependent on cAMP reduction and calcium signal transduction The effect of Edelfosine (Et-18-OCH3) (Et), BAPTA-AM (BAPTA), or 8-bromo-cAMP (8-b-CAMP) on the inhibition of PBMC proliferation was tested in a 5-day MLR experiment. The cells were incubated with 1 μM Edelfosine, 0.2 μM BAPTA-AM, or 5 μM 8-bromo-cAMP for 1 hour before the addition of sphingolipid analogues, 2 μM AD2900 (AD) (A), FTY720 (FTY) (B), or S1P (C). Significances are compared to AD2900/FTY/S1P without preincubation, respectively. Graphs summarize the results of at least four independent experiments. Results of Student’s t-test: *(P < 0.05, two-tailed test), ** (P < 0.01, two-tailed test).
Human PBLs were collected from human whole blood collected from healthy donors. Subsequently, the cells were centrifuged on a Ficoll-Paque gradient (Fresenius Kabi Norge AS, Oslo, Norway) and were isolated from the interphase layer. For the human MLR experiment, PBMCs from one healthy donor were pretreated for 1 day with AD2900, AD2730, AD2750, YZ297, YZ158, FTY720, or SEW2871. After 24 h, cells were washed and plated at a concentration of 5 × 10^4 cells/well in round bottom 96-well plates containing RPMI-1640 medium Supplemented with 10% human AB serum, 1% penicillin/streptomycin, and 1% l-glutamine (Beit Haemek, Israel). PBMCs from a second donor were irradiated at 3000 γ dosage and added to the plate in a 1:1 ratio with the first donor cells. The cells were cultured for 5 days. For the thymidine incorporation assay, after 4 days of co-culture, cells were pulsed with ^3H-thymidine at 1 μCi (0.037MBq) per well (PerkinElmer, MA, USA) for 16 additional hours and then harvested onto glass-fiber filters. ^3H-thymidine incorporation was measured using Top Count. NXT (PerkinElmer, UK). In other experiments, the supernatant was harvested after 5 days of co-culture for IFN-γ and TNF-α cytokine ELISA measurements (eBioscience, CA, USA). The cells were then collected for assessing apoptosis by FACS in MACSQuant analyzer (Miltenyi Biotech, Germany). In another set of experiments, the PBMCs of two donors were mixed. Sphingolipid analogues were then added to the culture and sustained through the 5 days of the MLR experiment.

CCCCCCCCCCCCC/C=C/[C@@H](O)[C@@H](N)COP(=O)(O)O [S1P, Sphingosine-1-phosphate] was tested, and the “effect of Et-18-OCH3, BAPTA-AM and 8-bromo-cAMP on suppression of PBMC proliferation” value was “reversed by all three inhibitors”.
